# Experimental data from patent US20110283416A1, “METHODS FOR PLANT FIBER CHARACTERIZATION AND IDENTIFICATION” (LE CENTRE NATIONAL DE LA RECHERCHE SCIENTIFIQUE, priority 2008, published 2011).
# Read-outs that look alike come from different tables or passages of the source.
# How the values were obtained:
# CYP77A4 [1] = target: T1, CYP77A4 (Arabidopsis thaliana, UniProt Q9LZ31); type: biochemical; conditions: 4.5 pmoles CYP77A4, 5 min, calculated with Enzyme Kinetics (Sigma Plot); for Km: read-out: Km for metabolism by CYP77A4
# T1 sequence (Q9LZ31 1-512): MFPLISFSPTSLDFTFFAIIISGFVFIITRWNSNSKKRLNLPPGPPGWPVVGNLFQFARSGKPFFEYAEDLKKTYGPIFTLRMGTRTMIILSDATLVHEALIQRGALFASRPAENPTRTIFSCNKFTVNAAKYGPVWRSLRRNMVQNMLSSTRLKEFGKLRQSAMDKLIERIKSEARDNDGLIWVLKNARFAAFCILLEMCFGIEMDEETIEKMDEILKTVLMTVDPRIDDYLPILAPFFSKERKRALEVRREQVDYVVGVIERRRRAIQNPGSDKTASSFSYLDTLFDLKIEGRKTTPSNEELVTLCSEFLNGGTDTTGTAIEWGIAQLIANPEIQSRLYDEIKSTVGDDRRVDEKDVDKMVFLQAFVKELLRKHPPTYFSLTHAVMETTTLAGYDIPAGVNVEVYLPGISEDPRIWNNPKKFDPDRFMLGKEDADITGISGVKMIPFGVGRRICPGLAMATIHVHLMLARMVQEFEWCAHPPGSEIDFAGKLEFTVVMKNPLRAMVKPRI
# CYP77A4 [2] = target: T1, CYP77A4; conditions: for amount of conversion of fatty acid / conversion as substrate of CYP77A4 (in words): 100 μM fatty acid, 10 pmole CYP77A4, 27° C., 15 minutes (FIG. 4); for epoxide product formed by CYP77A4 (GC-MS identification): 100 μM substrate, 15-20 min
# CYP77A4 expression [3] = assay: Induction of CYP77A4 expression by external factors, quantitative PCR on entire plantlets; conditions: after 5 hours; ethanol as control; qPCR (FIG. 3)
# CYP77A4 expression [4] = conditions: in vivo
# [5] = 100 μM, 15 minutes, 27° C., 10 pmole CYP77A4, NADPH
# [6] = GC-MS analysis of metabolite fraction
# [7] = 27° C., 10 pmole CYP77A4, NADPH
Structure (SMILES),Km (CYP77A4 [1]),amount of conversion of fatty acid (CYP77A4 [2]),conversion as substrate of CYP77A4 (in words) (CYP77A4 [2]),Vmax for metabolism by CYP77A4 (CYP77A4 [1]),epoxide product formed by CYP77A4 (GC-MS identification) (CYP77A4 [2]; [7]),further results
CC/C=C\C/C=C\C/C=C\CCCCCCCC(=O)O [linolenic acid],29 ± 4 µM,about 20%,increasing order of conversion,–,–,share of 12-13 mono-epoxy form among mono-epoxy products (CYP77A4 [2]; [5]): 87%; share of each of the other two mono-epoxy structures (CYP77A4 [2]; [5]): 6.5%
"CCCCCCCCCCCC(=O)O [C12:0, lauric acid]",–,about 35%,optimal substrate,–,–,share of omega-1 hydroxylated metabolite (CYP77A4 [2]; [6]): 53%; share of omega-2 hydroxylated metabolite (CYP77A4 [2]; [6]): 15.2%; share of omega-3 hydroxylated metabolite (CYP77A4 [2]; [6]): 7.6%; share of omega-4 hydroxylated metabolite (CYP77A4 [2]; [6]): 18.2%; share of omega-5 hydroxylated metabolite (CYP77A4 [2]; [6]): 6%
CCC1(c2ccccc2)C(=O)NC(=O)NC1=O [phenobarbital],–,–,–,–,–,induction of the expression of CYP77A4 (CYP77A4 expression [3]): 12 fold
CCCCCCCC/C=C\CCCCCCCC(=O)O [oleic acid],–,–,increasing order of conversion,26±5 nmol·min^−1·nmol^−1 P450,"epoxy form (at position 9, 10) of oleic acid",–
OC[C@@H](O)[C@@H](O)[C@H](O)[C@H](O)CO [mannitol],–,–,–,–,–,induction of the expression of CYP77A4 (CYP77A4 expression [4]): ~20 fold; induction of the transcription of CYP77A4 (CYP77A4 expression [4]): 18 fold
CCCCC/C=C\C/C=C\CCCCCCCC(=O)O [linoleic acid],61 ± 3 µM,–,increasing order of conversion,13±0.3 nmol·min^−1·nmol^−1 P450,12-13 epoxy form of linolenic acid,–
